Test system: MV-4-11 cells
Experiment: Gene expression microarray analysis (Affymetrix PrimeView) and GSEA
Format: cell-based, human
Parameters: RFU PODN (11730768_x_at) / Fold change /veh PODN (11730768_x_at) / RFU LINC00158 (11744669_a_at) / Fold change /veh LINC00158 (11744669_a_at) / RFU DUSP10 (11751237_a_at) / Fold change /veh DUSP10 (11751237_a_at) / RFU ID3 (11757404_x_at) / Fold change /veh ID3 (11757404_x_at) / RFU PLEKHG5 (11737974_s_at) / Fold change /veh PLEKHG5 (11737974_s_at) / RFU LRRC4B (11730491_at) / Fold change /veh LRRC4B (11730491_at) / RFU GIMAP4 (11747438_a_at) / Fold change /veh GIMAP4 (11747438_a_at) / RFU KRT8 (11758183_x_at) / Fold change /veh KRT8 (11758183_x_at) / RFU CNN1 (11734310_a_at) / Fold change /veh CNN1 (11734310_a_at) / RFU VPS37D (11726825_at) / Fold change /veh VPS37D (11726825_at) / RFU C10orf10 (11716522_x_at) / Fold change /veh C10orf10 (11716522_x_at) / RFU KIR2DL2 /// KIR2DL4 /// KIR2DL5A /// KIR2DL5B /// KIR2DS1 /// KIR2DS2 /// KIR2DS3 /// KIR2DS4 /// KIR3DL3 /// KIR3DL3 /// KIR3DS1 (11738374_at) / Fold change /veh KIR2DL2 /// KIR2DL4 /// KIR2DL5A /// KIR2DL5B /// KIR2DS1 /// KIR2DS2 /// KIR2DS3 /// KIR2DS4 /// KIR3DL3 /// KIR3DL3 /// KIR3DS1 (11738374_at) / RFU C1QL1 (11718748_at) / Fold change /veh C1QL1 (11718748_at) / RFU TMPRSS4 (11747572_a_at) / Fold change /veh TMPRSS4 (11747572_a_at) / RFU HAMP (11756126_x_at) / Fold change /veh HAMP (11756126_x_at) / RFU RNFT2 (11725882_a_at) / Fold change /veh RNFT2 (11725882_a_at) / RFU NR4A2 (11747474_a_at) / Fold change /veh NR4A2 (11747474_a_at) / RFU ABCC12 (11746883_a_at) / Fold change /veh ABCC12 (11746883_a_at) / RFU TMEM136 (11760407_x_at) / Fold change /veh TMEM136 (11760407_x_at) / RFU CLDN22 /// WWC2 (11732394_at) / Fold change /veh CLDN22 /// WWC2 (11732394_at) / RFU HLA-DPB1 (11760878_x_at) / Fold change /veh HLA-DPB1 (11760878_x_at) / RFU SPINT1 (11716480_a_at) / Fold change /veh SPINT1 (11716480_a_at) / RFU GAP43 (11754022_s_at) / Fold change /veh GAP43 (11754022_s_at) / RFU A4GNT (11735810_at) / Fold change /veh A4GNT (11735810_at) / RFU PRB3 (11715151_x_at) / Fold change /veh PRB3 (11715151_x_at) / RFU TUBB4B (11761932_at) / Fold change /veh TUBB4B (11761932_at) / RFU CAPN14 (11732068_a_at) / Fold change /veh CAPN14 (11732068_a_at) / RFU TMCC2 (11721928_a_at) / Fold change /veh TMCC2 (11721928_a_at) / RFU IRGQ (11745062_a_at) / Fold change /veh IRGQ (11745062_a_at) / RFU FAM174B (11720279_a_at) / Fold change /veh FAM174B (11720279_a_at) / RFU TMPRSS4 (11748680_a_at) / Fold change /veh TMPRSS4 (11748680_a_at) / RFU FAM212B (11763350_a_at) / Fold change /veh FAM212B (11763350_a_at) / RFU PLEKHG5 (11743358_a_at) / Fold change /veh PLEKHG5 (11743358_a_at) / RFU ZSCAN30 (11745921_a_at) / Fold change /veh ZSCAN30 (11745921_a_at) / RFU CMKLR1 (11741424_a_at) / Fold change /veh CMKLR1 (11741424_a_at) / RFU LOC101060620 /// MAPK8IP1 (11723275_at) / Fold change /veh LOC101060620 /// MAPK8IP1 (11723275_at) / RFU SPTSSB (11747773_x_at) / Fold change /veh SPTSSB (11747773_x_at) / RFU PRSS12 (11739890_at) / Fold change /veh PRSS12 (11739890_at) / RFU BIN1 (11741810_x_at) / Fold change /veh BIN1 (11741810_x_at) / RFU WNT11 (11732464_a_at) / Fold change /veh WNT11 (11732464_a_at) / RFU C10orf10 (11716521_a_at) / Fold change /veh C10orf10 (11716521_a_at) / RFU C5orf56 (11738089_at) / Fold change /veh C5orf56 (11738089_at) / RFU CYB561 (11721691_x_at) / Fold change /veh CYB561 (11721691_x_at) / RFU ANKRD19P (11752326_a_at) / Fold change /veh ANKRD19P (11752326_a_at) / RFU OR2T12 /// OR2T33 /// OR2T8 (11738714_s_at) / Fold change /veh OR2T12 /// OR2T33 /// OR2T8 (11738714_s_at) / RFU VCAN (11748164_a_at) / Fold change /veh VCAN (11748164_a_at) / RFU JSRP1 (11732532_at) / Fold change /veh JSRP1 (11732532_at) / RFU KRTAP10-11 (11738290_x_at) / Fold change /veh KRTAP10-11 (11738290_x_at) / RFU MYO3A (11730013_a_at) / Fold change /veh MYO3A (11730013_a_at) / RFU EBF3 (11725865_a_at) / Fold change /veh EBF3 (11725865_a_at) / RFU CAMK2N1 (11719241_x_at) / Fold change /veh CAMK2N1 (11719241_x_at) / RFU C5orf56 (11738088_a_at) / Fold change /veh C5orf56 (11738088_a_at) / RFU OLFML3 (11715873_a_at) / Fold change /veh OLFML3 (11715873_a_at) / RFU LOC100653217 /// NTM (11731650_a_at) / Fold change /veh LOC100653217 /// NTM (11731650_a_at) / RFU MAPK11 (11762145_a_at) / Fold change /veh MAPK11 (11762145_a_at) / RFU FIZ1 (11724087_x_at) / Fold change /veh FIZ1 (11724087_x_at) / RFU OASL (11726364_x_at) / Fold change /veh OASL (11726364_x_at) / RFU SOX15 (11748057_x_at) / Fold change /veh SOX15 (11748057_x_at) / RFU CD79A (11719716_a_at) / Fold change /veh CD79A (11719716_a_at) / RFU HIST1H1D (11736915_at) / Fold change /veh HIST1H1D (11736915_at) / RFU CASKIN2 (11723855_a_at) / Fold change /veh CASKIN2 (11723855_a_at) / RFU LOC730098 (11760151_x_at) / Fold change /veh LOC730098 (11760151_x_at) / RFU OR4N2 (11742367_at) / Fold change /veh OR4N2 (11742367_at) / RFU PRRT2 (11749266_a_at) / Fold change /veh PRRT2 (11749266_a_at) / RFU SNX32 (11753110_a_at) / Fold change /veh SNX32 (11753110_a_at) / RFU CDHR5 (11726645_a_at) / Fold change /veh CDHR5 (11726645_a_at) / RFU RCAN1 (11760418_a_at) / Fold change /veh RCAN1 (11760418_a_at) / RFU FAM167A (11723789_a_at) / Fold change /veh FAM167A (11723789_a_at) / RFU FAM26E (11764081_at) / Fold change /veh FAM26E (11764081_at) / RFU ISYNA1 (11749810_s_at) / Fold change /veh ISYNA1 (11749810_s_at) / RFU ACY1 (11761880_at) / Fold change /veh ACY1 (11761880_at) / RFU 11764098_at / Fold change /veh 11764098_at / RFU SAMD14 (11745864_x_at) / Fold change /veh SAMD14 (11745864_x_at) / RFU NPB (11741838_a_at) / Fold change /veh NPB (11741838_a_at) / RFU TMPRSS6 (11731388_a_at) / Fold change /veh TMPRSS6 (11731388_a_at) / RFU KRTAP10-2 (11738614_at) / Fold change /veh KRTAP10-2 (11738614_at) / RFU ARHGAP8 /// PRR5-ARHGAP8 (11727945_x_at) / Fold change /veh ARHGAP8 /// PRR5-ARHGAP8 (11727945_x_at) / RFU KRTAP5-7 /// NADSYN1 (11734609_at) / Fold change /veh KRTAP5-7 /// NADSYN1 (11734609_at) / RFU RASL12 (11751679_a_at) / Fold change /veh RASL12 (11751679_a_at) / RFU CDKN2B (11736163_a_at) / Fold change /veh CDKN2B (11736163_a_at) / RFU PRF1 (11729649_at) / Fold change /veh PRF1 (11729649_at) / RFU, ZNF638 /// ZNF638-IT1 / Fold change vs veh, ZNF638 /// ZNF638-IT1 / RFU, PANK3 / Fold change vs veh, PANK3 / RFU, SH3YL1 / Fold change vs veh, SH3YL1 / RFU, ZEB2 / Fold change vs veh, ZEB2 / RFU, NRIP1 / Fold change vs veh, NRIP1 / RFU, PTTG1IP / Fold change vs veh, PTTG1IP / RFU, CAPN2 / Fold change vs veh, CAPN2 / RFU, MED14 / Fold change vs veh, MED14 / RFU, SNORA58 / Fold change vs veh, SNORA58 / RFU, C1orf63 / Fold change vs veh, C1orf63 / RFU, LRRFIP1 / Fold change vs veh, LRRFIP1 / RFU, NDUFAF7 / Fold change vs veh, NDUFAF7 / RFU, SLC12A2 / Fold change vs veh, SLC12A2 / RFU, IBTK / Fold change vs veh, IBTK / RFU, ESF1 / Fold change vs veh, ESF1 / Fold change vs veh, TMEM50B / RFU, TAOK1 / Fold change vs veh, TAOK1 / RFU, ACBD3 / Fold change vs veh, ACBD3 / RFU, TMA16 / Fold change vs veh, TMA16 / RFU, RWDD3 / Fold change vs veh, RWDD3 / RFU, BCAT1 / Fold change vs veh, BCAT1 / RFU, EDEM3 / Fold change vs veh, EDEM3 / RFU, TMEM33 / Fold change vs veh, TMEM33 / RFU, WDR75 / Fold change vs veh, WDR75 / RFU, AHCTF1 / Fold change vs veh, AHCTF1 / RFU, TFRC / Fold change vs veh, TFRC / RFU, ZDHHC17 / Fold change vs veh, ZDHHC17 / RFU, NOM1 / Fold change vs veh, NOM1 / RFU, ARL8B / Fold change vs veh, ARL8B / RFU, ZBTB11 / Fold change vs veh, ZBTB11 / RFU, TAMM41 / Fold change vs veh, TAMM41 / RFU, KIAA1704 /// LOC100996395 / Fold change vs veh, KIAA1704 /// LOC100996395 / RFU, ING1 / Fold change vs veh, ING1 / RFU, TRMT61B / Fold change vs veh, TRMT61B / RFU, FUBP3 / Fold change vs veh, FUBP3 / RFU, TP53 / Fold change vs veh, TP53 / RFU, TNKS2 / Fold change vs veh, TNKS2 / RFU, ZFP14 / Fold change vs veh, ZFP14 / RFU, ACTR2 / Fold change vs veh, ACTR2 / RFU, PPP3R1 / Fold change vs veh, PPP3R1 / RFU, PIK3R1 / Fold change vs veh, PIK3R1 / RFU, HNRNPA1 / Fold change vs veh, HNRNPA1 / RFU, RNF170 / Fold change vs veh, RNF170 / RFU, ZNF28 / Fold change vs veh, ZNF28 / RFU, RNGTT / Fold change vs veh, RNGTT / RFU, OGT / Fold change vs veh, OGT / RFU, BRD1 / Fold change vs veh, BRD1 / RFU, MARS / Fold change vs veh, MARS / RFU, ZNF655 / Fold change vs veh, ZNF655 / RFU, FAHD1 / Fold change vs veh, FAHD1 / RFU, BDP1 / Fold change vs veh, BDP1 / RFU, LRRCC1 / Fold change vs veh, LRRCC1 / RFU, ARID1A / Fold change vs veh, ARID1A / RFU, ZNF146 / Fold change vs veh, ZNF146 / RFU, ZNF330 / Fold change vs veh, ZNF330 / RFU, GPN3 / Fold change vs veh, GPN3 / RFU, C9orf123 / Fold change vs veh, C9orf123 / RFU, N4BP2L2 / Fold change vs veh, N4BP2L2 / RFU, ARFIP1 / Fold change vs veh, ARFIP1 / RFU, FAM179B / Fold change vs veh, FAM179B / RFU, BCL10 / Fold change vs veh, BCL10 / RFU, UHRF1BP1L / Fold change vs veh, UHRF1BP1L / RFU, BET1 / Fold change vs veh, BET1 / RFU, CNOT2 / Fold change vs veh, CNOT2 / RFU, ZNF268 / Fold change vs veh, ZNF268 / Fold change vs veh, ZNF507 / RFU, DGCR2 / Fold change vs veh, DGCR2 / RFU, WDSUB1 / Fold change vs veh, WDSUB1 / Fold change vs veh, HSP90B1 /// MIR3652 / RFU, ADSS / Fold change vs veh, ADSS / RFU, GK / Fold change vs veh, GK / RFU, ZNF148 / Fold change vs veh, ZNF148 / RFU, TAF9 / Fold change vs veh, TAF9 / RFU, SLC1A5 / Fold change vs veh, SLC1A5 / RFU, SLMO2 / Fold change vs veh, SLMO2 / RFU, ABCC4 / Fold change vs veh, ABCC4 / RFU, LOC101060439 /// RAP1B / Fold change vs veh, LOC101060439 /// RAP1B / RFU, RFX7 / Fold change vs veh, RFX7 / RFU, GTPBP10 / Fold change vs veh, GTPBP10 / RFU, CNEP1R1 / Fold change vs veh, CNEP1R1 / RFU, BIVM-ERCC5 /// ERCC5 / Fold change vs veh, BIVM-ERCC5 /// ERCC5 / RFU, ILF3 / Fold change vs veh, ILF3 / RFU 11762660_at / Fold change /veh 11762660_at / RFU VCAN (11757783_s_at) / Fold change /veh VCAN (11757783_s_at) / RFU DDX43 (11728927_at) / Fold change /veh DDX43 (11728927_at) / RFU KRT8 (11758188_x_at) / Fold change /veh KRT8 (11758188_x_at) / RFU NKD1 (11759106_at) / Fold change /veh NKD1 (11759106_at) / RFU SRD5A1 (11742802_a_at) / Fold change /veh SRD5A1 (11742802_a_at) / RFU TPSAB1 /// TPSB2 (11721975_s_at) / Fold change /veh TPSAB1 /// TPSB2 (11721975_s_at) / RFU GSTM3 (11746129_a_at) / Fold change /veh GSTM3 (11746129_a_at) / RFU IL23R (11737362_x_at) / Fold change /veh IL23R (11737362_x_at) / RFU TMEM51 (11727254_a_at) / Fold change /veh TMEM51 (11727254_a_at) / RFU PIWIL2 (11732686_x_at) / Fold change /veh PIWIL2 (11732686_x_at) / RFU ORM1 (11744905_x_at) / Fold change /veh ORM1 (11744905_x_at) / RFU CCDC152 (11743942_at) / Fold change /veh CCDC152 (11743942_at) / RFU ECM1 (11717891_a_at) / Fold change /veh ECM1 (11717891_a_at) / RFU IL23R (11748794_a_at) / Fold change /veh IL23R (11748794_a_at) / RFU TNFAIP8L3 (11732012_x_at) / Fold change /veh TNFAIP8L3 (11732012_x_at) / RFU MBOAT4 (11741988_at) / Fold change /veh MBOAT4 (11741988_at) / RFU 11764193_at / Fold change /veh 11764193_at / RFU TMEM53 (11763286_at) / Fold change /veh TMEM53 (11763286_at) / RFU MAGEB2 (11727129_at) / Fold change /veh MAGEB2 (11727129_at) / RFU TMEM200A (11744735_a_at) / Fold change /veh TMEM200A (11744735_a_at) / RFU CCDC152 (11751479_a_at) / Fold change /veh CCDC152 (11751479_a_at) / RFU FAM211A (11726209_a_at) / Fold change /veh FAM211A (11726209_a_at) / RFU RGS16 (11746705_a_at) / Fold change /veh RGS16 (11746705_a_at) / RFU VCAN (11755009_s_at) / Fold change /veh VCAN (11755009_s_at) / RFU RHOB (11743442_s_at) / Fold change /veh RHOB (11743442_s_at) / RFU RGS16 (11720943_a_at) / Fold change /veh RGS16 (11720943_a_at) / RFU RGS16 (11720944_at) / Fold change /veh RGS16 (11720944_at) / RFU, VPS4B / Fold change vs veh, VPS4B / RFU, CREB1 / Fold change vs veh, CREB1 / RFU, DNAJC13 / Fold change vs veh, DNAJC13 / RFU, GNAQ / Fold change vs veh, GNAQ / RFU, CDK5R1 / Fold change vs veh, CDK5R1 / RFU, ZRANB3 / Fold change vs veh, ZRANB3 / RFU, CUL4A / Fold change vs veh, CUL4A / RFU, CCNY / Fold change vs veh, CCNY / RFU, UFL1 / Fold change vs veh, UFL1 / RFU, COG3 / Fold change vs veh, COG3 / RFU, DIAPH2 / Fold change vs veh, DIAPH2 / RFU, SKA2 / Fold change vs veh, SKA2 / RFU, AFF3 / Fold change vs veh, AFF3 / RFU, LMF1 / Fold change vs veh, LMF1 / RFU, IPO11 / Fold change vs veh, IPO11 / RFU, DFFB / Fold change vs veh, DFFB / RFU, FOXP1 / Fold change vs veh, FOXP1 / RFU, CARD8 / Fold change vs veh, CARD8 / RFU, STRN3 / Fold change vs veh, STRN3 / RFU, ADK / Fold change vs veh, ADK / RFU, RASSF2 / Fold change vs veh, RASSF2 / RFU, WIPF1 / Fold change vs veh, WIPF1 / RFU, LARP1B / Fold change vs veh, LARP1B / RFU, RASA1 / Fold change vs veh, RASA1 / RFU, RB1 / Fold change vs veh, RB1 / RFU, PPFIA1 / Fold change vs veh, PPFIA1 / RFU, MAT2A / Fold change vs veh, MAT2A / RFU, CCT5 / Fold change vs veh, CCT5 / RFU, WDR92 / Fold change vs veh, WDR92 / RFU, CUX1 / Fold change vs veh, CUX1 / RFU, TTC7A / Fold change vs veh, TTC7A / RFU, TMEM135 / Fold change vs veh, TMEM135 / RFU, DEPTOR / Fold change vs veh, DEPTOR / RFU, CPM / Fold change vs veh, CPM / RFU, DNAJB6 / Fold change vs veh, DNAJB6 / RFU, CACNA2D3 / Fold change vs veh, CACNA2D3 / RFU, DTX4 / Fold change vs veh, DTX4 / RFU, TFCP2 / Fold change vs veh, TFCP2 / RFU, GMCL1 /// GMCL1P1 / Fold change vs veh, GMCL1 /// GMCL1P1 / RFU, AEBP2 / Fold change vs veh, AEBP2 / RFU, SNHG1 /// SNORD22 /// SNORD25 /// SNORD26 /// SNORD27 /// SNORD28 /// SNORD29 /// SNORD31 / Fold change vs veh, SNHG1 /// SNORD22 /// SNORD25 /// SNORD26 /// SNORD27 /// SNORD28 /// SNORD29 /// SNORD31 / Fold change (Aza/veh), C12orf56 (ProbeSet 11735607_a_at) / Fold change (ACY-1035/veh), C12orf56 (ProbeSet 11735607_a_at) / Fold change (Aza/veh), FGFR1OP (ProbeSet 11751329_s_at) / Fold change (ACY-1035/veh), FGFR1OP (ProbeSet 11751329_s_at) / Fold change (Aza/veh), VPS36 (ProbeSet 11739960_a_at) / Fold change (ACY-1035/veh), VPS36 (ProbeSet 11739960_a_at) / RFU SYPL1 (11715823_x_at) / Fold change /veh SYPL1 (11715823_x_at) / RFU IGFBP7 (11715501_s_at) / Fold change /veh IGFBP7 (11715501_s_at) / RFU REEP3 (11722064_at) / Fold change /veh REEP3 (11722064_at) / RFU IGLL1 (11728026_x_at) / Fold change /veh IGLL1 (11728026_x_at): dose or concentration left out as unconfirmed
Conditions: MV-4-11 cells, 48 hours

SMILES: Nc1ncn([C@@H]2O[C@H](CO)[C@@H](O)[C@H]2O)c(=O)n1 [azacitidine]
- RFU SPINT1 (11716480_a_at): 23.10 RFU

Source: paper PMC5218480 (PLoS ONE, 2017)
